In patent publication US20050118565A1, “Systems and methods for assessing neuronal degeneration” (priority 2003, published 2005):

Legend:
neuronal samples = assay: fEPSP recording on MED probe: incubation with NMDA antagonist alone; type: cell-based, Sprague-Dawley rats; details: for amplitudes of responses, of control: n=3
Procedure: (§1) For baseline electrophysiological recordings in hippocampal samples, the MED probes containing the samples were removed from the incubator and placed in a smaller CO2 incubator at 34° C. and connected to the stimulation/recording component of the probe. The culture medium was replaced with sterile artificial cerebrospinal fluid (ACSF) of the following composition (in mM): NaCl (124), NaHCO3 (26), glucose (10), KCl (3), NaH2PO4 (1.25), CaCl2 (2), MgSO4 (1), and HEPES (10).
(§2) Evoked field potentials at all 64 sites were then recorded simultaneously with the multi-channel recording system (Panasonic, MED64 system) at a 20 kHz sampling rate. One of the planar microelectrodes of the 64 available was used for cathode stimulation. Bipolar constant current pulses (10 to 45 μA, 0.1 msec) were then produced. To collect typical responses in field CA1, one of the electrodes in the Schaffer collateral fibers was selected as a stimulating electrode while another one in stratum radiatum was selected as a recording electrode. Synaptic responses were recorded at eight-step stimulation intensities (10 to 45 μA, 5 μA steps). After each recording session, ACSF was replaced with culture medium and the samples in the probes were returned to the CO2 incubator.
However, after 1, 2, and 3 days of incubation, the amplitudes of responses were decreased to 83±6%, 79±11%, and 76±10% (n=3) of control, respectively.

[1] = test system: neuronal samples chronically exposed to NMDA; assay: Neuroprotectant assay: fEPSP amplitude on MED probe with 10 μM NMDA as excitotoxin; type: cell-based, Sprague-Dawley rats
Procedure: An assay for identifying neuroprotectants first involves testing the stability of the recordings by comparing FEPSP amplitudes measured at the beginning of the experiments with those measured later, e.g., after at least 3, 24, 48, and 72 hours at the same stimulation intensity (FIG. 1C). For data analysis, the amplitude of the maximal (plateau) value of the I/O curve is used to determine stability of the recordings. Typically, it corresponds to responses obtained by stimulation intensities of […] (FIG. 2B).
NMDA was selected as the excitotoxin. Based on the dose-response analysis described above (FIG. 4A), 10 μM NMDA was chosen as the concentration of agonist for use in this neuroprotectant assay. […] The neuronal samples and MED probes were prepared as described above.
After performing control measurements, neuronal samples were incubated in culture medium containing 10 μM NMDA and 1 μM MK-801 for various periods of time. […] The relative amplitude of synaptic responses measured at stimulation intensities corresponding to the plateau of I/O curves after 3 days of incubation was 91±6% of control (n=3).
After performing control measurements, neuronal samples were incubated in culture medium containing 10 μM NMDA and 30 μM memantine for various periods of time. […] However the degree of protection was much smaller than that provided by MK-801, as only 78±5% (n=3) of the initial amplitude was preserved under these conditions. The concentration dependency of memantine protection was studied using 10 μM NMDA and various concentrations of memantine.

[2] = test system: cultured hippocampal samples; assay: fEPSP recording on MED probe: neurodegeneration induced by NMDA and AMPA; type: cell-based, Sprague-Dawley rats; details: for synaptic responses, of the initial amplitude: then one hour of NMDA wash-out; for effect of chronic exposure on synaptic responses: chronic exposure of cultured hippocampal samples; for Hill coefficient: electrophysiology dose-response curve; for EC50: electrophysiology, various concentrations of agonist, read-out: EC50 (decrease of synaptic responses, Hill fit of plateau values of I/O curves)
Procedure: Before use, the MED probes (Panasonic, model MED-P530AP, each electrode: […], interpolar distance: 300 μm) were soaked in 70% ethanol for 15 minutes, dried, and then sterilized with UV radiation for 15 minutes. The probe surfaces were treated overnight at room temperature with 0.1% polyethylenimine and 25 mM borate buffer, pH 8.4. The probe surface was then dried and rinsed 3 times with sterile distilled water. Finally, the probes were filled with culture medium and stored in a CO2 incubator until use (for at least one hour). The culture medium was a 2:1 mixture of Basal Medium Eagle Medium (Sigma, Catalog No. B9638) and Earle Balanced Salts Solution (Sigma, Catalog No. E7510), supplemented with the following compounds (in mM): NaCl (20), NaHCO3 (5), CaCl2 (0.2), MgSO4 (1.7), glucose (48), HEPES (26.7); 5% horse serum (GIBCO, Catalog No. 26050) and 10 ml/L penicillin-streptomycin (GIBCO, Catalog No. 10378). The pH of culture medium was then adjusted to 7.2.
All procedures for culture preparation were carried out under a sterilized bench. Eleven day-old Sprague-Dawley rats were first sterilized with 70% ethanol, sacrificed by decapitation following anesthesia and the whole brain removed. The brains were immediately soaked in sterile ice-cold MEM (pH 7.2; GIBCO, Catalog No. 61100), supplemented with HEPES (25 mM), Tris-base (10 mM), glucose (10 mM) and MgCl2 (3 mM). Appropriate portions of the brain were then trimmed by hand and the remaining brain block placed on an ice-cold stage of a vibrating tissue slicer (Leica, model VT1000S). The thickness of the slices was set at 200 μm. The slices were gently taken off from the blade with a pipette. Each slice was trimmed, placed on the center of the MED probe, which was previously coated as mentioned above, and positioned to cover the 8×8 microelectrode array.
After positioning the section on the MED probe, the cutting solution was removed and culture medium added to the slice up to an interface level (approximately […]). Sterile distilled water was added around the probe to increase humidity and prevent over-drying of the culture medium in the MED probe. The slices on the MED probes were then stored in a CO2 incubator at 34° C. The medium was exchanged with half volume every day.
as §1, §2
fEPSPs were recorded at 20 s intervals using a paired-pulse stimulation paradigm with an inter-pulse interval of 50 msec. […] Slope and decay time of the responses were remarkably similar to those recorded in acutely prepared slices using the same system (FIG. 2C). […]

[3] = test system: cultured hippocampal samples; assay: PI uptake method, dose-response of excitotoxins; type: cell-based; details: for Hill coefficient (PI uptake method): PI uptake dose-response curve; for EC50: PI uptake, read-out: EC50 from the PI uptake method
Procedure: The mechanisms underlying the reduction in amplitude of synaptic responses produced by incubation with these two excitotoxins were further studied by applying various concentrations of NMDA and AMPA to tissue samples. As in the control experiments, the plateau values of the respective I/O curves were used for the analysis (FIGS. 4A and 4B). […] For comparison, dose-response curves obtained with the PI uptake method were plotted in the same figures (FIGS. 4A and 4B, open circles and dashed lines).

SMILES: CC12CC3CC(C)(C1)CC(N)(C3)C2 [memantine]
- synaptic transmission (neuronal samples; memantine alone, even at 30 μM, long-term incubation): did not result in a significant decrease
- initial amplitude preserved ([1]; 10 μM NMDA and 30 μM memantine, up to 3 days of incubation, n=3): 78±5%
- Hill coefficient of protection ([1]; 10 μM NMDA and various concentrations of memantine): 1.1±3
- IC50 ([1]; Rattus norvegicus, 10 μM NMDA and various concentrations of memantine, read-out: IC50 of protection (Hill equation)): 6.9 ± 1.6 µM

SMILES: CN[C@H](CC(=O)O)C(=O)O [NMDA, N-methyl-D-aspartate]
- synaptic responses, of the initial amplitude ([2]; 10 μM NMDA for 40 min.): 109±4%
- synaptic responses, of the initial amplitude ([2]; 10 μM NMDA for 3 hours): 66±5%
- synaptic responses, of the initial amplitude ([2]; 10 μM NMDA for 1 day): 52±2%
- synaptic responses, of the initial amplitude ([2]; 10 μM NMDA for 3 days): 18±3%
- maximal amplitude of synaptic responses, of control values ([2]; 10 μM NMDA, three hours of incubation, n=3): 18±4%
- effect of chronic exposure on synaptic responses [2]: dose-dependent decreases in synaptic responses
- Hill coefficient [2]: 1.7±0.2
- EC50 [2]: 5.2 ± 0.5 µM
- amplitude of synaptic responses, of control values ([2]; end of incubation with 10 μM NMDA for 40 min., n=3): 48±12%
- amplitude of synaptic responses, of control values ([2]; end of incubation with 10 μM NMDA for 3 hours, n=3): 22±7%
- amplitude of synaptic responses, of control values ([2]; end of incubation with 10 μM NMDA for 1 day, n=3): 13±3%
- amplitude of synaptic responses, of control values ([2]; end of incubation with 10 μM NMDA for 3 days, n=3): 11±3%
- Hill coefficient (PI uptake method) [3]: 3.7±1.0
- EC50 [3]: 21.6 ± 3.4 µM

SMILES: Cc1onc(O)c1CC(N)C(=O)O (stereo not drawn) [AMPA, amino-3-hydroxy-5-methyl-4-isoxazolepropionic acid]
- recovery of synaptic responses after agonist removal ([2]; 1 μM AMPA 3 days, then 24 hours of AMPA removal): no recovery was observed
- time course of the decrease in synaptic response ([2]; 1 μM AMPA, three hours and subsequent time points): continued to decrease at subsequent time points, stabilizing after 1 day
- amplitude of synaptic responses, of control values ([2]; 40 min. incubation with 3 μM AMPA, n=3): 12±5%
- synaptic response amplitudes ([2]; 3 days of incubation with 1 μM AMPA, n=3): 46±4%
- effect of chronic exposure on synaptic responses [2]: dose-dependent decreases in synaptic responses
- Hill coefficient [2]: 2.6±0.8
- EC50 [2]: 0.81 ± 0.1 µM
- Hill coefficient (PI uptake method) [3]: 2.0±0.1
- EC50 [3]: 3.87 ± 0.1 µM

SMILES: C[C@]12N[C@H](Cc3ccccc31)c1ccccc12 [MK-801]
- synaptic responses (neuronal samples; 1 μM MK-801 alone, 3 hours of incubation): not affected
- amplitudes of responses, of control (neuronal samples; 1 μM MK-801 alone, 1 day of incubation): 83±6%
- amplitudes of responses, of control (neuronal samples; 1 μM MK-801 alone, 2 days of incubation): 79±11%
- amplitudes of responses, of control (neuronal samples; 1 μM MK-801 alone, 3 days of incubation): 76±10%
- protection of synaptic transmission against NMDA-mediated neurotoxicity ([1]; 10 μM NMDA and 1 μM MK-801, 3 hours up to 3 days): almost completely protected
- relative amplitude of synaptic responses at plateau of I/O curves, of control ([1]; 10 μM NMDA and 1 μM MK-801, 3 days of incubation, n=3): 91±6%
